The values below come from ChEMBL document CHEMBL1201862, “PubChem BioAssay data set” (2004).

Calls of active or inactive are those of the source. Rule as the data show it, for most assays here: actives have a measured EC50 and inactives only a lower limit.

Test [1] has as its target T1, Zinc finger protein mex-5 (Caenorhabditis elegans, UniProt Q9XUB2).
T1 sequence (Q9XUB2 whole entry): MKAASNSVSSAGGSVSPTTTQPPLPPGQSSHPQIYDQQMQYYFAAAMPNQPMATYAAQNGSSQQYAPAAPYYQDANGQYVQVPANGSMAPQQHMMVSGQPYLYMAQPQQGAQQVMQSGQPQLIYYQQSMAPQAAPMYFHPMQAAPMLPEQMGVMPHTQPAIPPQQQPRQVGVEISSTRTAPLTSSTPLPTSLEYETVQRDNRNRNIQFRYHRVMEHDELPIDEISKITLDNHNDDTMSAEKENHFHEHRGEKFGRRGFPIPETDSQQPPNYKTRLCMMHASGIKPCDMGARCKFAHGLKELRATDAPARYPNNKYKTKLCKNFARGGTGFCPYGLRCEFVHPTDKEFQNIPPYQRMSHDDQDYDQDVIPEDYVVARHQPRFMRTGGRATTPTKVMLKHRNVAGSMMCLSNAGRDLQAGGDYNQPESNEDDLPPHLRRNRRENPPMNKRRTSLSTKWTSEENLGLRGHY
Put plainly: MEX-5/TCR-2 RNA interaction inhibitors, dose response, biochemical, C. elegans, fluorescence polarization (AID 1960). (In general: In fluorescence polarisation assays a small probe gives low polarisation when free and higher when bound to something large.)

Test [2] deals with T2, RNA-binding protein pos-1 (Caenorhabditis elegans, UniProt G5EF15).
T2 sequence (G5EF15 whole entry): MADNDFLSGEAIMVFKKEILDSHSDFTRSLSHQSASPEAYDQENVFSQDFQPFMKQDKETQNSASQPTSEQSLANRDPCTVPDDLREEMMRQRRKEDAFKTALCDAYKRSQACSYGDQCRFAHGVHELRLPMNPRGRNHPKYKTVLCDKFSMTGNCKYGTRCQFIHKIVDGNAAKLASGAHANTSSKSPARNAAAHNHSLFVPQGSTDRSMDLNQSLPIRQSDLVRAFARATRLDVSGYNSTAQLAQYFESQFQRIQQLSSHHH
Put plainly: inhibitors of POS-1/mex-3 RNA binding, dose response, biochemical, fluorescence polarization (AID 1964).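 Also: purified POS-1 fused to maltose binding protein made in E. coli; potency of compounds blocking POS-1 binding to fluorescent RNA.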

Test [3] concerns Streptococcus. Put plainly: Group A Streptococcus viability loss, dose response, counter-screen for streptokinase expression inhibitor project, luminescence, BacTiterGlo (AID 1915).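 Also: potency for reduction of bacterial viability or growth.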 Type of test: functional, organism-based. On the technique in general: A counterscreen serves to expose hits that act by an unwanted route or on another target.
The target in test [4] is T3, Streptokinase A (Streptococcus pyogenes serotype M1, UniProt P10520).
T3 sequence (P10520 whole entry): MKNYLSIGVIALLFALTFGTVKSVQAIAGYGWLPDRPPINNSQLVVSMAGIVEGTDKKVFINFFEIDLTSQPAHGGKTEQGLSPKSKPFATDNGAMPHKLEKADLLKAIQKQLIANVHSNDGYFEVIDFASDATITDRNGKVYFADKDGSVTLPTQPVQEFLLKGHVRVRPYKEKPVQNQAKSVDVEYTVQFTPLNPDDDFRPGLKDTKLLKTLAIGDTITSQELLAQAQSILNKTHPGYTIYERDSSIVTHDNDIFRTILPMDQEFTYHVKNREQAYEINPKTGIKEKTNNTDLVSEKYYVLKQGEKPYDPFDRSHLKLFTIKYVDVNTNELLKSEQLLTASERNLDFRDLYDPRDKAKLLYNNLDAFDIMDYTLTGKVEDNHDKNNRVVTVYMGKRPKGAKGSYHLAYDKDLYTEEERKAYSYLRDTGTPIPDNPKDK
In words: S. pyogenes streptokinase expression inhibitors, potency, dose response, plasminogen activation absorbance, OD405 (AID 1914).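 Also: secreted streptokinase activity via plasminogen activation per viability signal from cell pellet.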 Type of test: functional, Streptococcus pyogenes M1 GAS.

The subject of test [5] is Streptococcus sp. 'group A'. Put plainly: growth inhibition of control SK(-) GAS strain, dose response, counter-screen for streptokinase expression inhibitor project, luminescence, kanamycin, BacTiterGlo, confirmation (AID 1900). Type of test: functional, organism-based.
Test [6] is described as follows: cells. Format: functional.
Test [7] has as its target T4, Corticotropin-releasing factor receptor 2/Corticotropin-releasing factor-binding protein (Homo sapiens, UniProt P24387+Q13324).
T4 sequence (Q13324 whole entry): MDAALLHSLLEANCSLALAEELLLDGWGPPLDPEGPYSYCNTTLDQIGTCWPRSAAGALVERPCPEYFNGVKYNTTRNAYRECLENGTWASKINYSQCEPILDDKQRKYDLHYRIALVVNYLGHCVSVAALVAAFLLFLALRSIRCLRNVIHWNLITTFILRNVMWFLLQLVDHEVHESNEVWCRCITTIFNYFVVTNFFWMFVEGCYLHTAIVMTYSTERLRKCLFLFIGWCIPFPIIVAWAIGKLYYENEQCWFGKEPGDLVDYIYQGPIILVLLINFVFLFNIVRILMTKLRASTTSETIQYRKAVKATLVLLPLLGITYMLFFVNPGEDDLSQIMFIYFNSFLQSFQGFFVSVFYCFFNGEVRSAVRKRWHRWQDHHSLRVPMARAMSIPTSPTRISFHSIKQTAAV
T4 sequence (P24387 whole entry): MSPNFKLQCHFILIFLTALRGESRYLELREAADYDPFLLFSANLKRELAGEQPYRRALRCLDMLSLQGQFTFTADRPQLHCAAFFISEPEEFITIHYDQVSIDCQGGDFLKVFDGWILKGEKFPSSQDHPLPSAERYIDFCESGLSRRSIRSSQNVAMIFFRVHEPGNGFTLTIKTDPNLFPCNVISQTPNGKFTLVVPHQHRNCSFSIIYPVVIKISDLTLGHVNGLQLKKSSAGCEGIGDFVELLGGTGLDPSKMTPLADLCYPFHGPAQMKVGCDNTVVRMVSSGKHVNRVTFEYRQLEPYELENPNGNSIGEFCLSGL
Put plainly: activators of CRF receptor 2 with binding protein – uHTS hits, confirmation (AID 602473). Format: functional. As to conditions: read-out: EC50_Mean.

Test [8] in a line: Luminescence Cell-Based Dose Confirmation HTS to Identify Inhibitors of Platelet Dense Granule Release. [Related pubchem assays: 1663 (Primary HTS), 1678 (Summary of Project)]. Format: functional.
Test [9] can be described thus: Luminescence Cell-Based Dose Response HTS to Identify Inhibitors of 5'UTR Stem-Loop Driven Prion Protein mRNA Translation in H4 Neuroglioblastoma Cells. [Related pubchem assays: 1827 (Project Summary), 1813 (Primary HTS)]. Format: functional.
For test [10], the target named is Luciferin 4-monooxygenase (Photinus pyralis, UniProt P08659). In words: firefly luciferase enzyme inhibitors, dose response, biochemical, luminescence (AID 1891).
Test [11] can be described thus: inhibitors of SNCA 5'UTR-driven reporter translation, confirmation, H4 neuroglioma cells, luminescence (AID 1988). Format: functional, cell-based.
Test [12] is described as follows: inhibitors of firefly luciferase expression or activity, dose response, H4 neuroglioma cells, luminescence (AID 1990). Format: functional, cell-based.
Test [13] in a line: inhibitors of intracellular T. cruzi replication, confirmation, NIH3T3 host cells, beta-gal luminescence (AID 2044).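 Also: intracellular parasites grown in NIH/3T3 mouse fibroblasts as host cells; luminescent beta-galactosidase reporter signal from transgenic T. cruzi replicating inside host cells; inhibitors lower the luminescence signal.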 Format: functional, cell-based.
Test [14] in a line: cytotoxicity toward NIH3T3 fibroblasts, dose response, counter-screen, cell-based, ATP luminescence, mouse fibroblasts (AID 2010).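 Also: cells exposed to compound for about 90 hours before reading.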 Format: functional.

Sequence of Luciferin 4-monooxygenase (P08659 whole entry): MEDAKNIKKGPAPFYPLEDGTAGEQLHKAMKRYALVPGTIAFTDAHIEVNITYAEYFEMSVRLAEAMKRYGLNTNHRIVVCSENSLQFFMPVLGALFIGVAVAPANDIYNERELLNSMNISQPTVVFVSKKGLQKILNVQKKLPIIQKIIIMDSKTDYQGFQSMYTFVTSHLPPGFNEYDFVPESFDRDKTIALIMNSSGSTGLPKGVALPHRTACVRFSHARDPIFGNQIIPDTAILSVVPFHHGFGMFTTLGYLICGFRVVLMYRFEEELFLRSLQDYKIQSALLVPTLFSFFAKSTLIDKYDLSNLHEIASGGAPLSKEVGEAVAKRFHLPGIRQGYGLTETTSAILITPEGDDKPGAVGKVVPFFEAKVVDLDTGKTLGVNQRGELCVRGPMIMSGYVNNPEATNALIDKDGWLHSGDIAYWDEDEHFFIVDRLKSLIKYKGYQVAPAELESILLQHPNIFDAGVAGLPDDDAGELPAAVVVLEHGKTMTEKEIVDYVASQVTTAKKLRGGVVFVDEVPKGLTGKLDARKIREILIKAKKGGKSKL

Take `O=C(CN1CCC(n2nnc3cc(F)ccc32)CC1)NCCc1ccccc1`: the EC50 in test [1] and in test [2] was > 300 µM (not active) throughout.

For the molecule `COc1ccccc1-n1c(O)cc(=O)nc1SCC(=O)Nc1ccc(C)cc1`, the EC50 in [3] was 118 µM (active); in test [4] it was > 150 µM (not active); in test [5] it was 29.9 µM (active).

Regarding `CC(=O)Nc1nnc(S(=O)(=O)N2CCN(c3ccc([N+](=O)[O-])cc3Cl)CC2)s1`, the EC50 in test [3] and in [4] was > 150 µM (not active) in each case.

Take `CCc1nnc(NS(=O)(=O)c2ccc(NCc3cc(Cl)cc(Cl)c3O)cc2)s1`: the EC50 is > 150 µM (not active) in test [3], 50.8 µM (active) in test [4] and 29.5 µM (active) in [5].

In the case of `Brc1cc(-c2ccccc2)nc(-c2ccccc2)n1`, the EC50 in [3], in test [4] and in test [5] was > 150 µM (not active) each time.

Regarding `CCOC(=O)COc1ccc2c(c1)C(=O)CC(C)(c1cccnc1)O2` (stereo not drawn), the IC50 (in general, the midpoint of a concentration-inhibition curve) in [6] is 11.2 µM (active).

Take `O=S(=O)(Nc1cccc(-c2ccc(N3CCOCC3)nn2)c1)c1ccc(Cl)c(Cl)c1`: the EC50 in test [3] is 116 µM (active); in test [4], 23.5 µM (active); in test [5] it was 12.6 µM (active).

For the molecule `COc1ccc(C(=O)C2CCCN(C(=O)c3ccc(CSC)o3)C2)cc1F` (stereo not drawn), in [6], the IC50 is 41.5 µM (active).

Take `COc1ccc(OCCOC(=O)c2cccs2)cc1`: the IC50 in [6] was 23.5 µM (active).

For the molecule `CCC(C)(C)NC(=O)C(c1cccn1C)N(C(=O)Cn1nnc2ccccc21)c1ccc(OC)cc1` (stereo not drawn), the EC50 in test [1] and in [2] was > 300 µM (not active) throughout.

For the molecule `CCOc1ccc(N2C(=O)NC(=O)/C(=C/Nc3ccc(N(CC)CC)cc3)C2=O)cc1`, the EC50 is 106 µM (active) in test [1], 10.4 µM (active) in [7] and 151 µM (active) in test [2].

Turning to `CN1C(=O)C(=Cc2cc3ccccc3nc2O)C(=O)N(C)C1=O`, the EC50 in [1] and in [2] was > 300 µM (not active) throughout.

Consider `COc1cc2c(cc1OC)-c1cc(NC3CCCCC3)nc(=O)n1CC2`, for which the EC50 in [8] is 2.24 µM (active); in test [9], > 120 µM (not active); in test [10], > 112 µM (not active); in test [11], 33.2 µM (active); in test [12] it was 20 µM (active).

`O=[N+]([O-])c1cc(S(=O)(=O)Nc2cccc(Cl)c2)ccc1N=Nc1c(O)[nH]c2ccccc12`: the EC50 is 1.31 µM (active) in test [13]; 22.2 µM (active) in test [3]; 27.4 µM (active) in [4]; > 60 µM (not active) in [14]; 1.69 µM (active) in test [5].

Turning to `CC1(C)CC(=O)C2=C(C1)OC(N)=C(C#N)C21C(=O)N(CN2CCOCC2)c2ccccc21` (stereo not drawn), the EC50 in [1] and in test [2] was > 300 µM (not active) throughout.

On to `Cc1ccc(/C=N/NC(=O)c2ccncc2)s1`, for which the IC50 in [6] was 0.96 µM (active).

Turning to `CC(C)n1nc(C(=O)Nc2ccccc2N2CCOCC2)c2ccccc2c1=O`, the EC50 in test [8] was 26.7 µM (active); in test [10], > 112 µM (not active).

In the case of `COc1ccccc1CNC(=O)CSc1nc(=O)n(Cc2ccncc2)c2c1CCC2`, the EC50 in [3], in test [4] and in [5] was > 150 µM (not active) in each case.

As for `N#Cc1cc(NC2CCCC2)c([N+](=O)[O-])cc1C#N`, the EC50 in test [1] is 41.8 µM (active); in [2], > 300 µM (not active).

As for `CCOc1cc(/C=C(\C#N)c2nc3ccccc3[nH]2)ccc1OC(C)C(=O)O` (stereo not drawn), the EC50 in test [1] was 50.5 µM (active); in [2], 78.5 µM (active).

Take `COc1cccc(Oc2c(C)oc3c(CN4CCCCC4)c(O)ccc3c2=O)c1`: the EC50 is 19.2 µM (active) in [8] and > 112 µM (not active) in test [10].

In the case of `C=CCOc1cccc(C2C(C(=O)c3ccc(C)o3)=C(O)C(=O)N2c2nnc(C)s2)c1` (stereo not drawn), the values for the EC50 in test [1] and in test [2] were 210 µM (active) and > 300 µM (not active), respectively.

Take `COc1ccc(Nc2nc3ccccc3nc2NS(=O)(=O)c2cccs2)c(OC)c1`: the EC50 in test [1] was 49.7 µM (inconclusive); in [2] it was 5.66 µM (active).

`COc1cccc(N2C(=O)NC(=O)/C(=C/c3ccc4c(c3)Cc3ccccc3-4)C2=O)c1`: the EC50 in test [1] and in test [2] was > 300 µM (not active) in each case.

`COCCOC(=O)c1c(C)nc(SCC(=O)Nc2ccc(C)cc2)c(C#N)c1-c1ccco1`: the EC50 in test [3] is 53.5 µM (active); in test [4], > 150 µM (not active).

Regarding `Cc1ccc(CN(C(=O)c2csnn2)C(C(=O)NC2CCCC2)c2ccc(C)o2)cc1` (stereo not drawn), the EC50 was > 112 µM (not active) in test [8] and 67.6 µM (active) in test [10].

As to `CC1CCCC(/C=N/c2ccc(C(=O)O)c(O)c2)=C1O` (stereo not drawn), the IC50 in test [6] is 0.2 µM (active).

For the molecule `O=C(COc1ccc(Cl)cc1)Nc1ccc(Cc2ccncc2)cc1`, the EC50 in test [8] and in test [10] was > 112 µM (not active) in each case.

On to `COC(=O)c1cccc([N+](=O)[O-])c1CN1CCCC(C(N)=O)C1` (stereo not drawn), for which the EC50 in test [8] and in test [10] was > 112 µM (not active) throughout.

Regarding `Cc1ccc(NC(=O)C(=O)NNC(=O)c2ccccc2C)cc1Cl`, the 50% inhibitory concentration (IC50) in test [6] is 6.8 µM (active).

Consider `Cc1nn(C(C)C(=O)N2CCc3ccccc3C2)c(=O)c2cc3occc3n12` (stereo not drawn), for which the EC50 in [8] and in test [10] was > 112 µM (not active) in each case.
